How the values were obtained:
[1] = tested on: T1, Ins(1,4,5)P3 receptors in human platelet membranes; assay: displacement of […] [3H]Ins([…])P3, filtration, log probit analysis; assay type: binding; conditions: 20 nM [3H]Ins(1,4,5)P3, 50 mM Tris-HCl pH 8.5, 1 mM EDTA, 4 °C, 10 min
T1 construct: gene ITPR1; native receptor in crude platelet membranes of healthy human subjects; not purified; tetrameric channel

[2] = tested on: T1, Ins(1,4,5)P3 receptors in human platelet membranes; assay: radioligand saturation binding, filtration, Scatchard (EBDA); conditions: 50 mM Tris-HCl pH 8.5, 1 mM EDTA, 1 mM 2-mercaptoethanol, 4 °C, 10 min; labelled compound; crude platelet membranes; single site

For `O=P(O)(O)O[C@H]1[C@@H](O)[C@H](O)[C@@H](OP(=O)(O)O)[C@H](OP(=O)(O)O)[C@H]1O` [D-Ins(2,4,5)P3], which IC50 [1] is on record?
The IC50 was 1.9 ± 0.68 µM.

`O=P(O)(O)O[C@@H]1[C@@H](O)[C@@H](O)[C@@H](OP(=O)(O)OC[C@H](O)CO)[C@H](O)[C@H]1OP(=O)(O)O` [GPIP2] was tested. Which IC50 [1] did it give?
Its IC50 is 4.97 ± 1.83 µM.

With `O=P(O)(O)O[C@@H]1[C@@H](O)[C@H](OP(=O)(O)O)[C@@H](OP(=O)(O)O)[C@H](O)[C@@H]1O` [L-Ins(1,4,5)P3] as the compound, how does the IC50 [1] read?
The IC50 was 354 ± 37 µM.

For `O=P(O)(O)O[C@@H]1[C@H](O)[C@H](O)[C@@H](OP(=O)(O)O)[C@H](OP(=O)(O)O)[C@H]1O` [[^3H]Ins(1,4,5)P3], which Kd [2] is on record?
Its Kd is 0.0221 ± 0.00234 µM.

And the IC50 ([1]; error exceeds the value)?
Its IC50 is 0.3 ± 0.5 µM.
